Experimental data published in patent US20160206597A1, “New Use” (priority 2013, published 2016).

Columns and labels:
[1] = tested on: patients with chronic heart failure with preserved left-ventricular ejection fraction (HF-PEF); assay: Echocardiographic parameters in the 36-week HF-PEF study; type: in vivo, human; settings: for LA Volume Index, Δ from Baseline / LA Volume, Δ from Baseline / LA dimension, Δ from Baseline / LV mass index, Δ from Baseline / Relative wall thickness, Δ from Baseline: at 36 weeks
Description: Echocardiographic studies are performed at screening, randomization, at week 12, and week 36 or at end of study or early termination visits. Echocardiograms performed at screening are evaluated by local readers for qualifying information. All other echocardiograms are only performed in patients meeting NT-proBNP entry criterion and are evaluated centrally. For assessment of global ventricular size and function, left ventricular end-diastolic and end-systolic volumes are obtained utilizing the Simpson's rule method and left ventricular ejection fraction is derived in the usual fashion. Maximal left atrial dimension is measured in the parasternal long-axis view, and left atrial volume is assessed with the Simpson's rule method and indexed to body surface area. Measurements are made in triplicate in accordance with the recommendations of the American Society of Echocardiography. Blood pressure and heart rate are measured at all study visits with a calibrated standard sphygmomanometer and appropriate size cuff. The use of concomitant medication is recorded at each study visit.

[2] = tested on: patients with chronic heart failure with preserved left-ventricular ejection fraction (HF-PEF); assay: Renal function parameters (eGFR, serum creatinine, urinary albumin creatinine ratio) in the 36-week HF-PEF study; type: in vivo, human; settings: for urinary albumin creatinine ratio at baseline: baseline before treatment; for eGFR decrease over 36 weeks: p=0.007; for urinary albumin creatinine ratio at week 36: p=0.02 between groups
Description: The term “eGFR” refers to estimated glomerular filtration rate. Within the context of the present invention the eGFR is calculated by the Modification in Diet in Renal Disease (MDRD) formula, which is the one recommended by NICE and The Renal Association (UK), and which is based on the equation described in Levey A S, Bosch J P, Lewis J B, et al; “A more accurate method to estimate glomerular filtration rate from serum creatinine: a new prediction equation. Modification of Diet in Renal Disease Study Group.” Ann Intern Med. 1999 Mar. 16; 130(6):461-70.
(§1) Men and women aged 40 years or older with a left ventricular ejection fraction of 45% or above, and a documented history of heart failure with associated signs or symptoms (dyspnea on exertion, orthopnea, paroxysmal dyspnea, and peripheral edema) are eligible. Patients are required to have an NT-proBNP >400 pg/mL at screening, be on diuretic therapy, and have a systolic blood pressure less than 140 mm Hg, or 160 mm Hg or less if on three or more blood pressure medications at randomization. Additional inclusion criteria include an estimated glomerular filtration rate (eGFR) of at least 30 ml/min/1.73 m^2 at screening (calculated by the Modification of Diet in Renal Disease formula) and a potassium concentration of no more than 5.2 mmol/L.

[3] = tested on: patients with chronic heart failure with preserved left-ventricular ejection fraction (HF-PEF); assay: NT-proBNP in 36-week randomized double-blind study of LCZ696 vs valsartan; type: in vivo, human; settings: for Ratio of change in NT-proBNP (LCZ696/valsartan) at 12 weeks: baseline to 12 weeks, 95% CI 0.64-0.92, p = 0.005; for NT-proBNP at 12 weeks / NT-proBNP at 36 weeks / NT-proBNP, Baseline (12-week analysis) / NT-proBNP, Baseline (36-week analysis): geometric mean; for NT-proBNP at 12 weeks / NT-proBNP at 36 weeks: LCZ696 200 mg or valsartan 160 mg twice daily; for NT-proBNP, Baseline (12-week analysis) / NT-proBNP, Baseline (36-week analysis): baseline before treatment; for NT-proBNP, Baseline (12-week analysis): patients evaluated at 12 weeks; for NT-proBNP, Baseline (36-week analysis): patients evaluated at 36 weeks
Source text: as §1
Patients are excluded if they had prior left ventricular ejection fraction less than 45% at any time, isolated right heart failure due to pulmonary disease, dyspnea due to non-cardiac causes such as pulmonary disease, anemia, or severe obesity, primary valvular or myocardial diseases, or coronary artery or cerebrovascular disease requiring revascularization within 3 months of screening or likely to require revascularization during the trial.

[4] = tested on: patients with chronic heart failure with preserved left-ventricular ejection fraction (HF-PEF); assay: NYHA class, clinical composite assessment and KCCQ in the 36-week HF-PEF study; settings: p=0.05
Description: (§2) Eligible patients are enrolled into a 2-week, single-blind placebo run-in period, during which time they continue their background medications. ACE inhibitors and angiotensin receptor blockers are required to be discontinued 24 hours prior to randomization.
(§3) At the investigator's discretion, patients are allowed to stay on each titration dose for an additional week. […] Patients remain on these doses for the remainder of the study, although those not tolerating the maximum dose of study medication could be down-titrated to a lower dose at the Investigator's discretion and then re-challenged to the maximum dose of study medication, or remain on the lower dose.
The primary study endpoint is the change from baseline in NT-proBNP assessed at 12 weeks, and is analyzed using the last observation after baseline carried forward. […]
The clinical composite assessment is based on a composite of the NYHA functional classification, patient global assessment and major adverse clinical events. […] Patients are determined to be worse if at the endpoint visit they experienced a major adverse cardiac event during the double blind treatment or reported worsening of their NYHA class or patient global assessment. […]

[5] = tested on: patients with chronic heart failure with preserved left-ventricular ejection fraction (HF-PEF); assay: Safety and tolerability in the 36-week HF-PEF study; settings: 36-week study
Description: as §2, §3

Compound | LA Volume Index, Δ from Baseline [1] [ml/m^2] | LA Volume, Δ from Baseline [1] [mL] | LA dimension, Δ from Baseline [1] [cm] | LV mass index, Δ from Baseline [1] [g/m^2] | Relative wall thickness, Δ from Baseline [1] | LA Volume Index, Baseline ([1]; baseline before treatment) [ml/m^2] | LA Volume, Baseline ([1]; baseline before treatment) [mL] | LA dimension, Baseline ([1]; baseline before treatment) [cm] | LV mass index, Baseline ([1]; baseline before treatment) [g/m^2] | urinary albumin creatinine ratio at baseline [2] [mg/mmol] | eGFR decrease over 36 weeks [2] [mL/min per 1.73 m^2] | urinary albumin creatinine ratio at week 36 [2] [mg/mmol] | NT-proBNP at 12 weeks ([3]; 12 weeks) [pg/mL] | NT-proBNP at 36 weeks [3] [pg/mL] | NT-proBNP, Baseline (12-week analysis) [3] [pg/mL] | NT-proBNP, Baseline (36-week analysis) [3] [pg/mL] | also measured
trisodium [3-((1S,3R)-1-biphenyl-4-ylmethyl-3-ethoxycarbonyl-1-butylcarbamoyl) propionate-(S)-3′-methyl-2′-(pentanoyl{2″-(tetrazol-5-ylate)biphenyl-4′-ylmethyl}amino)butyrate]hemipentahydrate [LCZ696] | −2.61 | -4.61 | −0.15 | −2.78 | +0.01% | 35.01 | 65.26 | 3.68 | 76.56 | 1.9 | −1.6 | 2.9 | 605 | 496 | 783 | 763 | Left atrial volume, left atrial volume index (LAVI) and left atrial dimension, result in words ([1]; after 36 weeks of treatment, p=0.003, 0.007 and 0.034): reduced significantly; Relative wall thickness, Baseline ([1]; baseline before treatment): 0.37; Preservation of renal function compared with valsartan ([2]; after 36 weeks of therapy, eGFR and creatinine data): better preserved renal function; eGFR, LSM of difference (95% CI), LCZ696 vs. Valsartan ([2]; at 36 weeks, P 0.0163): 3.46 (0.64, 6.27) mL/min/1.73 m^2; Serum creatinine, LSM of difference (95% CI), LCZ696 vs. Valsartan ([2]; at 36 weeks, P 0.0193): −4.83 (−8.87, −0.79) μmol/L; Reduction in NT-proBNP versus valsartan after adjustment for the change in blood pressure ([3]; 12 weeks, p=0.01): greater reduction; Early reduction in NT-proBNP compared with the valsartan group ([3]; after 4 weeks of treatment, p=0.063): not significant; Ratio of change in NT-proBNP (LCZ696/valsartan) at 12 weeks [3]: 0.77; Ratio of change in NT-proBNP (LCZ696/valsartan) at 12 weeks ([3]; listed as LZC696): 0.77 (95% CI; Ratio of change in NT-proBNP (LCZ696/valsartan) at 36 weeks ([3]; baseline to 36 weeks, 95% CI 0.65-1.09, p = 0.20): 0.85 (95% CI; NYHA class at 36 weeks compared with the valsartan group [4]: improvement in NYHA class
CCCCC(=O)N(Cc1ccc(-c2ccccc2-c2nnn[nH]2)cc1)[C@H](C(=O)O)C(C)C [Valsartan, (S)—N-valeryl-N-{[2′-(1H-tetrazole-5-yl)-biphenyl-4-yl]-methyl}-valine, reference compound] | 0.31 | 0.37 | −0.08 | −1.93 | +0.01% | 36.80 | 68.28 | 3.73 | 79.45 | 2.0 | −5.2 | 2.0 | 835 | 607 | 862 | 822 | Adverse event atrial fibrillation (number of patients) [5]: 8 patients; Adverse event atrial fibrillation (percent of patients) [5]: 5.3%; Angio-oedema occurrence [5]: no patients; Deaths among serious adverse events [5]: two deaths; Patients with one or more serious adverse events (number) [5]: 30 patients; Patients with one or more serious adverse events (percent) [5]: 20%
